Data as given in patent publication US8119689B2, “Adjuvants on the basis of bisacyloxypropylcystene conjugates and derivatives and their uses in pharmaceutical compositions” (Helmholtz-Zentrum Fuer Infektionsforschung GmbH, priority 2005, dated 2012).

Key:
[1] = test system: β-gal antigen-specific IgG isotypes; assay: β-gal-specific IgG isotypes in sera of immunized mice (isotype ELISA); format: in vivo; details: after intranasal and after parenteral administration
Experimental: FIG. 8: FIG. 8 provides the analysis of beta-Gal specific IgG isotypes in sera of immunized mice. Anti-beta-Gal specific IgG isotypes of the groups immunized with PBS, (control) beta-Gal+either BPPcysGlyc4armPEG or BPPcysPEG (FIG. 8A) or BPPcysAda or Ada alone (FIG. 8B), or beta-Gal alone of mice immunized by the i.n. or s.c. route were determined by ELISA. Results are expressed as end point titers. IgG titers represent the mean of five animals per experimental group. Differences were statistically significant at p<0.05 (*) with respect to mice receiving antigen alone. One representative out of four independent experiments is shown. SEM is indicated by vertical lines.
Isotyp ELISA: 96-well Nunc-Immuno MaxiSorp assay plates (Nunc, Roskilde, Denmark) were coated with 100 μl of β-gal (Boehringer, Mannheim, Germany) at 5 μg/ml in 0.05 M carbonate buffer (pH 8.2) per well. Serial two-fold dilutions of sera or lavages in PBS with 1% BSA and 0.05% Tween 20 were added (100 μl/well), and plates incubated for 2 h at 37° C. After washing, biotin-conjugated rat anti-mouse IgG1 or IgG2a (Pharmingen, Hamburg, Germany) were added to determine IgG subclasses. Plates were incubated for an additional 1 h at 37° C. After four washes, 100 μl of peroxidase-conjugated streptavidin (Pharmingen) was added to cells and plates incubated at 37° C. for 30 min. After four washes, reactions were developed with ABTS in 0.1 M citrate-phosphate buffer (pH 4.35) containing 0.01% H2O2. To determine the concentration of IgG subclasses in serum, standard curves were obtained by coating the wells with an isotype-specific goat anti-mouse IgG, and then by incubating with purified mouse IgG1 or IgG2a antibodies (Dianova, Hamburg, Germany).

[2] = test system: primary bone marrow-derived dendritic cells; assay: In vitro stimulation of primary bone marrow-derived murine dendritic cells, surface markers by flow cytometry; format: cell-based, BALB/c mice; details: concentration enhanced to 100 ng/ml (not shown)
Experimental: FIG. 1: FIGS. 1A-1C show the results for In vitro studies using primary dendritic cells. Primary bone marrow-derived dendritic cell cultures were obtained from BALB/c mice by in vitro maturation of precursors using recombinant GM-CSF (5×10^4 U/ml). Mature dendritic cells were stimulated with 10 ng/ml of E. coli lypopolysaccharide (LPS) or 50 and 100 ng/ml of BPPcysGlyc4armPEG and BPPcysAda, respectively. Then, cells were double-labeled with antibodies specific for CD11c (dendritic cell marker) in combination with anti-CD40, anti-CD54, anti-CD80, anti-CD86, anti-MHC class 1, or anti-MHC class 11 antibodies. The expression of CD40, CD80, CD54, CD86, anti-MHC class 1, and MHC class 11 in CD11c-gated cells were analyzed by flow cytometry.
Experimental protocol: primary bone marrow-derived dendritic cell cultures were obtained from BALB/c mice following in vitro maturation of precursors in the presence of recombinant GM-CSF (5×10^4 U/ml), according to established protocols. Mature dendritic cells were stimulated with 10 ng/ml of E. coli lypopolysaccharide (LPS) or 5 ng/ml of BPPcysGlyc4armPEG, after 12, 24 and/or 48 h stimulation cells were analyzed by flow cytometry to assess the expression of surface markers which are relevant for their antigen presentation capacity.
In order to identify compounds which may have potential as adjuvants for in vivo applications in the vaccinology field, a first in vitro screening based on the used of primary cultures of bone marrow-derived dendritic cells was established. Dendritic cells were selected since they represent the most efficient antigen presenting cells and they play a key role by primary immune responses. In fact, they are the only cell type able to activate resting T cells initiating primary immune responses in vivo. Thus, dendritic cell cultures were treated with the tested moieties or LPS, which was used as a positive control. At different time intervals, samples were taken, stained with fluorescent-labeled antibodies specific for cellular markers critical for the antigen presenting capacities of dendritic cells, and analyzed by flow cytometry.
To test the stimulatory capacity of BPPCysAda on maturation and activation of bone marrow-derived DC, immature DC's were stimulated in vitro with BPPCysAda. Surface markers on CD11c+-gated DC were investigated by FACS analysis after 16 or 40 h pre-treatment.

[3] = test system: peritoneal macrophages from C3H/HeJ mice; assay: Nitrogen monoxide release assay (macrophage activation); format: cell-based; details: 25 mM octylglucoside in first dilution step
Experimental: NO release of restimulated macrophages using different concentrations (serial dilutions) of the macrophage activator BPPcysGlyc4armPEG as adjuvant. As positive control, the NO release of macrophages in response to serial dilutions of Malp-2 and in response to 4armPEG molecules (negative control) are shown.
In brief, peritoneal macrophages from C3H/HeJ mice were used as the macrophage source. They were cultured in 96-well microtiter plates and stimulated simultaneously with rIFN-γ and a serial dilution of macrophage activator. Insofar as necessary (i.e. R-Malp-2/standard), the macrophage activators were dissolved in 25 mM octylglucoside in the first dilution step and then diluted further with medium. After an incubating time of 45-48 hours, the nitrate was reduced with nitrate reductase and the starting substance nitrogen monoxide was determined, as the sum of nitrate and nitrite, using Griess' reagent. 1 unit (U)/ml is defined as the dilution at which half-maximal stimulation takes place.

Molecule	antigen-specific antibody response [1]	differences in the expression of surface markers when concentration enhanced [2]	effect of adding a solubilizer (octylglucoside) on macrophage activation [3]
Nc1ncnc2c1ncn2[C@@H]1O[C@@H]2COP(=O)(O)O[C@H]3[C@@H](O)[C@H](n4cnc5c(N)ncnc54)O[C@@H]3COP(=O)(O)O[C@H]2[C@H]1O [c-diAMP]	strong antigen-specific antibody response	–	–
MALP-2 [reference compound]	–	No differences	required
